Columns and labels:
Test in all cases: selective drug sensitivity score (sDSS, relative to normal bone marrow) (sDSS (score)); higher = more potent and effective on the cell line relative to normal bone marrow cells
Details in all cases: 72 h
HPB-ALL = test system: HPB-ALL
COG-LL-317 = test system: COG-LL-317
RCH-ACV = test system: RCH-ACV
CCRF-HSB2 = test system: CCRF-HSB2
NALM-16 = test system: NALM-16
COG-LL-319h = test system: COG-LL-319h
PF-382 = test system: PF-382
TANOUE = test system: TANOUE
COG-LL-332h = test system: COG-LL-332h
COG-LL-402h = test system: COG-LL-402h
MHH-CALL-3 = test system: MHH-CALL-3
SUP-B15 = test system: SUP-B15
COG-LL-355h = test system: COG-LL-355h
REH = test system: REH
JURKAT = test system: JURKAT
HAL-01 = test system: HAL-01
DND-41 = test system: DND-41
P30-OHKUBO = test system: P30-OHKUBO
KASUMI-10 = test system: KASUMI-10
KASUMI-2 = test system: KASUMI-2
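Further: ALL cell lines in 384-well plates, five doses spanning 10,000-fold, each plate scaled between vehicle and 100 µmol/L benzalkonium chloride controls, sDSS an adapted area-under-curve metric.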

| SMILES | selective drug sensitivity score (HPB-ALL) | selective drug sensitivity score (COG-LL-317) | selective drug sensitivity score (RCH-ACV) | selective drug sensitivity score (CCRF-HSB2) | selective drug sensitivity score (NALM-16) | selective drug sensitivity score (COG-LL-319h) | selective drug sensitivity score (PF-382) | selective drug sensitivity score (TANOUE) | selective drug sensitivity score (COG-LL-332h) | selective drug sensitivity score (COG-LL-402h) | selective drug sensitivity score (MHH-CALL-3) | selective drug sensitivity score (SUP-B15) | selective drug sensitivity score (COG-LL-355h) | selective drug sensitivity score (REH) | selective drug sensitivity score (JURKAT) | selective drug sensitivity score (HAL-01) | selective drug sensitivity score (DND-41) | selective drug sensitivity score (P30-OHKUBO) | selective drug sensitivity score (KASUMI-10) | selective drug sensitivity score (KASUMI-2) |
| --- | --- | --- | --- | --- | --- | --- | --- | --- | --- | --- | --- | --- | --- | --- | --- | --- | --- | --- | --- | --- |
| CCCCCOC(=O)Nc1nc(=O)n([C@@H]2O[C@H](C)[C@@H](O)[C@H]2O)cc1F [Capecitabine] (top concentration 10000 nM) | 0.64 | -0.06 | -0.06 | -0.06 | -0.06 | -0.06 | -0.06 | -0.06 | -0.06 | -0.06 | -0.06 | -0.06 | -0.06 | -0.06 | -0.06 | 0.44 | 1.84 | -0.06 | -0.06 | -0.06 |
| Nc1nc(Cl)nc2c1ncn2[C@H]1C[C@H](O)[C@@H](CO)O1 [Cladribine] (top concentration 1000 nM) | -9.34 | 1.06 | 5.76 | -0.04 | -8.24 | 7.76 | -5.54 | -16 | 3.26 | 3.66 | 11.7 | 9.36 | 0.16 | -2.64 | -10.7 | -0.14 | 1.16 | 8.06 | 5.26 | 6.76 |
| CCN(CC)CCOc1ccc(/C(=C(/Cl)c2ccccc2)c2ccccc2)cc1 [Clomifene] (top concentration 10000 nM) | -0.78 | 0.22 | 3.22 | 1.52 | -2.88 | -0.48 | 0.72 | -2.98 | 0.42 | -0.88 | 6.52 | 0.12 | 0.52 | 0.72 | -1.28 | 4.32 | 1.62 | 3.22 | -1.78 | 0.82 |
| CO[C@@H](C(=O)N1Cc2[nH]nc(NC(=O)c3ccc(N4CCN(C)CC4)cc3)c2C1)c1ccccc1 [Danusertib] (top concentration 10000 nM) | 5.54 | 19.4 | 17.9 | 19.8 | -0.96 | 19 | 6.24 | -9.16 | 17.2 | 11.5 | 13.8 | 18.6 | 3.04 | 16.5 | -0.96 | -2.56 | -1.36 | 20 | 13.8 | 9.14 |
| CC[C@@](C)(Nc1ccnc(-c2c[nH]c3ncccc23)n1)C(=O)NCC(F)(F)F [Decernotinib] (top concentration 10000 nM) | -3.94 | -3.94 | -3.14 | 1.16 | -3.94 | -3.94 | -3.94 | -3.94 | -3.34 | -3.94 | -1.94 | -3.94 | -3.94 | -3.94 | -3.94 | -3.94 | -2.64 | -3.94 | -3.84 | -1.84 |
| CN1CCN(c2ccc3nc(-c4c(N)c5c(F)cccc5[nH]c4=O)[nH]c3c2)CC1 [Dovitinib] (top concentration 10000 nM) | -0.14 | -0.04 | 0.46 | 1.86 | 0.96 | -0.14 | -0.14 | -0.14 | 0.36 | 2.96 | -0.14 | 0.26 | 3.66 | -0.14 | -0.14 | -0.14 | 0.16 | 0.36 | 6.46 | -0.14 |
| CC(C)(O)CNc1nc(Nc2ccnc(C(F)(F)F)c2)nc(-c2cccc(C(F)(F)F)n2)n1 [Enasidenib] (top concentration 10000 nM) | -0.5 | 0.8 | 2.2 | -0.1 | -0.8 | 2 | -0.1 | -0.8 | -0.5 | -0.7 | 0.8 | -0.3 | -0.6 | -0.8 | -0.7 | -0.8 | 0.4 | 1.2 | -0.8 | 4 |
| CN1CCN(c2ccc(C(=O)Nc3n[nH]c4ccc(Cc5cc(F)cc(F)c5)cc34)c(NC3CCOCC3)c2)CC1 [Entrectinib] (top concentration 1000 nM) | -1.2 | -0.7 | -1.2 | 0.9 | 0.5 | -1.2 | -1.2 | -1.2 | -0.5 | -0.7 | -1.2 | -0.7 | 1.5 | -1.2 | -1.2 | 0 | -1.2 | -1.1 | 3.2 | -1.2 |
| CNC(=O)c1ccc(N2C(=S)N(c3ccc(C#N)c(C(F)(F)F)c3)C(=O)C2(C)C)cc1F [Enzalutamide] (top concentration 10000 nM) | 8.28 | 1.18 | -0.72 | -0.52 | -0.82 | 1.58 | 0.18 | -0.32 | -0.12 | 0.68 | -0.82 | 3.38 | -0.82 | -0.82 | 1.18 | -0.82 | 1.58 | -0.52 | -0.82 | -0.82 |
| Cn1cc(C2=C(c3cn(C4CCN(Cc5ccccn5)CC4)c4ccccc34)C(=O)NC2=O)c2ccccc21 [Enzastaurin] (top concentration 10000 nM) | -0.24 | 7.26 | 2.36 | 5.06 | 5.56 | 2.26 | 3.36 | 2.46 | 6.16 | 5.16 | 3.86 | 4.86 | 6.76 | 3.66 | 4.26 | -0.34 | 4.56 | 3.46 | 4.56 | 2.06 |
| NS(=O)(=O)NCCNc1nonc1/C(=N/O)Nc1ccc(F)c(Br)c1 [Epacadostat] (top concentration 10000 nM) | -0.16 | 1.14 | -0.26 | -0.26 | -0.26 | -0.26 | -0.26 | -0.26 | -0.26 | -0.26 | -0.26 | -0.26 | -0.26 | 3.34 | -0.16 | 0.84 | -0.26 | -0.06 | -0.06 | -0.26 |
| CCOc1ccccc1-n1c(C(C)N2CCN(C(=O)COc3ccc(Cl)cc3)CC2)nc2ccccc2c1=O (stereo not given) [Erastin] (top concentration 10000 nM) | 6.54 | 11.2 | 17.6 | 10.6 | 9.34 | 19.3 | 21 | -9.96 | 12.7 | 7.64 | 24.4 | 14 | 14.4 | 7.04 | -0.16 | 18.5 | 7.14 | 9.54 | -4.36 | 19.4 |
| COc1cc(OC)cc(N(CCNC(C)C)c2ccc3ncc(-c4cnn(C)c4)nc3c2)c1 [Erdafitinib] (top concentration 1000 nM) | 1.64 | -0.56 | 2.04 | 3.04 | -0.56 | 0.44 | -0.56 | -0.56 | -0.46 | 0.04 | 0.64 | -0.46 | -0.56 | 0.44 | -0.56 | 6.94 | -0.26 | 1.74 | -0.06 | -0.56 |
| CC(C)(C)NC(=O)[C@H]1CC[C@H]2[C@@H]3CC[C@H]4NC(=O)C=C[C@]4(C)[C@H]3CC[C@]12C [Finasteride] (top concentration 10000 nM) | 0.28 | -0.52 | -0.52 | -0.52 | -0.52 | -0.42 | -0.52 | -0.52 | -0.52 | -0.52 | -0.52 | 3.08 | -0.52 | -0.52 | -0.52 | 1.08 | 2.98 | -0.52 | -0.42 | 0.78 |
| O=c1[nH]c(=O)n([C@H]2C[C@H](O)[C@@H](CO)O2)cc1F [Floxuridine] (top concentration 10000 nM) | 1.12 | 32.4 | 39.1 | 4.42 | 10.2 | 26.8 | 9.82 | 2.92 | 26.1 | 28.2 | 26.3 | 42.4 | 6.52 | 25.8 | 18.7 | 23.7 | 21 | 37 | 29.7 | 33.4 |
| CNc1nc(Nc2cn(C(C)(C)C#N)nc2C)ncc1C(F)(F)F [GNE-0877] (top concentration 1000 nM) | 0 | 0 | 0 | 0 | 0 | 0 | 0 | 0 | 0 | 0 | 0 | 0 | 0 | 0.8 | 0 | 0 | 0 | 0 | 0 | 1 |
| CCCc1cc(C)[nH]c(=O)c1CNC(=O)c1cc(-c2ccnc(N3CCN(C)CC3)c2)cc2c1cnn2C(C)C [GSK343] (top concentration 1000 nM) | 0 | 0 | 0 | 0 | 0 | 0 | 0 | 0 | 0 | 0 | 0 | 0 | 0 | 0 | 0 | 0 | 0 | 0 | 0 | 0 |
| O=C(O)c1ccc(O)c2ncccc12 [IOX-1] (top concentration 100000 nM) | 2.94 | 4.54 | 3.74 | 5.34 | 4.64 | 2.94 | 4.44 | 2.24 | 7.54 | 3.64 | 0.24 | 4.24 | 3.24 | 2.54 | 3.54 | 3.34 | 6.24 | 3.04 | 1.54 | 2.04 |

Reference: the supplement of paper PMC8967900
